Source: patent publication US20230210903A1, “HYPOXIA-RESISTANT NATURAL KILLER CELLS” (ONK THERAPEUTICS LIMITED, priority 2020, published 2023)

What was measured:
[1] = test system: phosphorylation of ERK and STAT3; assay: Western blotting of ERK and STAT3 phosphorylation in hypoxic KHYG-1 cells; type: cell-based; settings: hypoxic KHYG-1 cells pre-treated with 5 μM for 2 h
Procedure: Hypoxic KYHG-1 cells were pre-treated with 5 μM TPI-1 for 2 h, and then the cells were collected for western blotting analysis.
For western blotting, treated and untreated KHYG-1 and NK92 cells were lysed in buffer containing 50 mM Tris, 150 mM NaCl, 1% Triton X-100, 1% sodium deoxycholate, 0.1% SDS and protease inhibitors on ice for 30 min. Lysates were centrifuged at 12,000 rpm for 15 min, and supernatants were collected. Protein concentration was determined by the BCA protein assay kit (HEART Biotech, #WB003). Equal amounts of protein were loaded and separated on sodium dodecyl sulfate-polyacrylamide gel electrophoresis gel, and transferred onto a PVDF membrane (Millipore, #IPVH00010). After blocking for 1 h with 5% non-fat milk in PBS with 0.1% Tween-20 at room temperature, the membrane was incubated with primary antibody at 4° C. overnight. Immunoblots were visualized using HRP-conjugated secondary antibodies and the ECL Western Blot Detection kit (Phygene Life Sciences, #PH0353).

K562 cells = settings: KHYG-1 pretreated with 10 μM for 6 h, then K562 at different E:T ratios for 4 h
Procedure: Statistical analysis showing the effects of ERK and STAT3 inhibition on NK cells cytotoxicity against K562 cells (n=3, * P<0.05, ** P<0.01). KHYG-1 cells were pretreated with 10 μM U0126 and 10 μM CPT for 6 h and then incubated with K562 at different E:T ratios for 4 h.
(e) Flow cytometric analysis of the effects of TPI-1 on the NK cell cytotoxicity. Left panel: representative flow cytometry results of TPI-1 on the cytotoxicity of KHYG-1 cells. KHYG-1 cells were pretreated with 5 μM TPI-1 for 2 h, and then incubated with K562 cells at different E:T ratios for 4 h. Right panel: statistical analysis of the effects of TPI-1 on KHYG-1 cell cytotoxicity against K562 cells (n=3, * P<0.05).
(b) Statistical analysis of the effects of knocking down SHP-1 on NK cells cytotoxicity against K562 cells (n=3, * P<0.05). […]
Prior to the assay, NK cells and tumour cells were individually pre-incubated for 24 h at 5% CO2 with 20% or 1% 02 first. […] After the 4 h incubation, samples were harvested and washed followed by a combinational staining with CD2-APC, Annexin V-FITC as well as Sytox Green, in which CD2 was used to distinguish effector from target cells, and target cell death was detected with Annexin V-FITC and Sytox Green. A minimum of 10,000 target events were collected per sample, and the results were analyzed using Flowjo v7.6.2.

KHYG-1 cells = assay: Flow cytometry of activating receptors on NK cell surface, KHYG-1; type: cell-based; settings: 10 μM inhibitor for 24 h
Procedure: (§1) Hypoxia diminishes the phosphorylation level of ERK and STAT3.
(§2) The expression of NK cell cytotoxicity effector molecules and activating receptors was analyzed by flow cytometry. For membrane staining, 5×10^5 cells were collected and washed with staining buffer (PBS containing 0.1% NaN3 and 0.1% BSA) three times. The cells were then incubated for 30 min on ice, according to the instructions provided with the respective antibodies. After washing 3 times with cell stain buffer, the cells were resuspended in 300 μL staining buffer in the presence of Sytox Green or 7-AAD, which were used to gate out dead cells. Acquisition of 10,000 cells per reaction was performed using a CytoFLEX Cytometer (Beckman Coulter Life Sciences). Data were analyzed with Flowjo v7.6.2 (Tree Star). For intracellular staining, 5×10^5 cells were collected and fixed with 1 mL 1% paraformaldehyde in PBS for 15 minutes at room temperature. After washing 3 times with cell stain buffer, the fixed cells were then resuspended in 2 mL permeabilization buffer (0.1% saponin in cell staining buffer) and incubated for 30 min at room temperature. The cells were collected again by centrifugation, stained with the antibody at an optimal working concentration in permeabilization buffer for 15 min on ice. […]

NK-92 cells = assay: Flow cytometry of activating receptors on NK cell surface, NK-92; type: cell-based; settings: 10 μM inhibitor for 24 h
Procedure: as §1, §2

DR4 = DR4 (Homo sapiens, UniProt O00220); settings: surface plasmon resonance; WO 2009/077857; cited from earlier work
decoy receptor DcR1 = biological target: T1, decoy receptor DcR1 (Homo sapiens, UniProt O14798); settings: surface plasmon resonance; WO 2009/077857; cited from earlier work
T1 sequence (O14798 26-236): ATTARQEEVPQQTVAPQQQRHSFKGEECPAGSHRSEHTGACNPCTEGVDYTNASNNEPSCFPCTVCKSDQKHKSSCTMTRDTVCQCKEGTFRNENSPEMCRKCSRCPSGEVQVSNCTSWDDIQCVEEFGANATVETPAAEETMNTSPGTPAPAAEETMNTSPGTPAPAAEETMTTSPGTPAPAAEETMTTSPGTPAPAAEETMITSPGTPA

DcR1 = biological target: T2, DcR1 (Homo sapiens, UniProt O14798); settings: compared with wildtype TRAIL; cited from earlier work
T2 sequence (O14798 26-236): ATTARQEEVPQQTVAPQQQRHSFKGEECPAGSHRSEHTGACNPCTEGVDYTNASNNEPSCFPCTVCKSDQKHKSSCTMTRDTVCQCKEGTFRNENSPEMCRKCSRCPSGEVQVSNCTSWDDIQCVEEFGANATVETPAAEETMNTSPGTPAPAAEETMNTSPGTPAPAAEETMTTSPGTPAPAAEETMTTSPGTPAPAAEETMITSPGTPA

DR5 = DR5 (Homo sapiens, UniProt O14763); settings: compared with wildtype TRAIL; cited from earlier work
DcR2 = biological target: T3, DcR2 (Homo sapiens, UniProt Q9UBN6); settings: compared with wildtype TRAIL; cited from earlier work
T3 sequence (Q9UBN6 56-386): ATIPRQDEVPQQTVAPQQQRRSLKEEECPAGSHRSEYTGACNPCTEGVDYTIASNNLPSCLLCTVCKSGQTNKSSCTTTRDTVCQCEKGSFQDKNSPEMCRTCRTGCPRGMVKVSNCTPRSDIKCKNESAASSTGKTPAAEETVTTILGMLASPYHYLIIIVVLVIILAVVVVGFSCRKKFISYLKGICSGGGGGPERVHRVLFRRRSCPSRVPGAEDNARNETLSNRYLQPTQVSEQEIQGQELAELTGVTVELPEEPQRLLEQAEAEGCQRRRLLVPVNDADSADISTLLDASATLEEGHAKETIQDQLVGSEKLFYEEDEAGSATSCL

O=C1C=CC(=O)C(c2cc(Cl)ccc2Cl)=C1 [TPI-1]
phosphorylation of ERK and STAT3 [1]: reverse the decrease

N#CC(=C(/N)Sc1ccccc1N)/C(C#N)=C(\N)Sc1ccccc1N [U0126]
NK cell cytotoxicity against cancer cells (K562 cells): significantly impaired | expression of activating receptors NKp30, NKp46 and NKG2D (KHYG-1 cells): significantly reduced | expression of activating receptors NKp46 and NKG2D (NK-92 cells): significantly reduced

C[C@H]1COC2=C1C(=O)C(=O)c1c2ccc2c1CCCC2(C)C [cryptotanshinone]
NK cell cytotoxicity against cancer cells (K562 cells): significantly impaired

Wildtype TRAIL: wildtype TRAIL ligand
Kd (DR4): > 2 nM | Kd (decoy receptor DcR1): > 20 nM

B1: TRAIL variant: encoded by the wildtype TRAIL gene containing the D269H/E195R mutation, described in WO 2009/077857 (protein)
chain: MAMMEVQGGPSLGQTCVLIVIFTVLLQSLCVAVTYVYFTNELKQMQDKYSKSGIACFLKEDDSYWDPNDEESMNSPCWQVKWQLRQLVRKMILRTSEETISTVQEKQQNISPLVRERGPQRVAAHITGTRGRSNTLSSPNSKNEKALGRKINSWESSRSGHSFLSNLHLRNGELVIHEKGFYYIYSQTYFRFQERIKENTKNDKQMVQYIYKYTSYPDPILLMKSARNSCWSKDAEYGLYSIYQGGIFELKENDRIFVSVTNEHLIDMHHEASFFGAFLVG
affinity for decoy receptor DcR1 (DcR1): reducing | affinity for DR5 (DR5): significantly increases | affinity for decoy receptor DcR2 (DcR2): reducing
